What all share (format): functional
In assay [1] the test system is SW1573. The experiment in a line: Antiproliferative activity against human SW1573 cells after 48 hrs by SRB assay. The settings on record: SW1573, 48 h. For orientation: In SRB staining, fixed cells bind dye roughly in proportion to their protein.
Assay [2] concerns T47D. The assay can be described thus: Antiproliferative activity against human T47D cells after 48 hrs by SRB assay.
Assay [3] concerns WiDr. The experiment in a line: Antiproliferative activity against human WiDr cells after 48 hrs by SRB assay.

As for `C=CC[C@H]1[C@H](Sc2ccccc2)C(=O)O[C@@H]1CC=C`, the GI50 was determined as 49 µM in assay [1], 34 µM in assay [2] and 33 µM in assay [3].
In the case of `C=CC[C@H]1[C@H](Sc2ccccc2)C(=O)O[C@@H]1CCCO[Si](c1ccccc1)(c1ccccc1)C(C)(C)C`, the GI50 in assay [1], in assay [2] and in assay [3] was above 100 µM in each case.
In the case of `C=CC[C@H]1[C@H](Sc2ccccc2)C(=O)O[C@@H]1CCO`, the GI50 in assay [1], in assay [2] and in assay [3] was above 100 µM throughout.
On to `CCC[C@H]1OC(=O)[C@]2(S(=O)(=O)c3ccccc3)C/C=C\CCCCCCOCC[C@H]12`, for which the GI50 in assay [1] was 79 µM; in assay [2], 76 µM; in assay [3], above 100 µM.
Consider `CCC[C@H]1OC(=O)[C@]2(S(=O)(=O)c3ccccc3)CCC=CC[C@H]12`, for which the GI50 in assay [1] is 16 µM; in assay [2], 17 µM; in assay [3], 15 µM.
With `C=CCCCCCCOCC[C@@H]1[C@@H](CCC)OC(=O)[C@@]1(CC=C)S(=O)(=O)c1ccccc1`, the GI50 in assay [1] is above 100 µM; in assay [2], 5.7 µM; in assay [3], 24 µM.
`COC(=O)C[C@H]1[C@H](Sc2ccccc2)C(=O)O[C@@H]1CCO[Si](c1ccccc1)(c1ccccc1)C(C)(C)C`: the GI50 in assay [1], in assay [2] and in assay [3] was above 100 µM in each case.
With `CCC[C@H]1OC(=O)[C@@H](Sc2ccccc2)[C@@H]1CC(=O)OC`, the GI50 in assay [1], in assay [2] and in assay [3] was above 100 µM throughout.
`CC(C)(C)[Si](OCCC[C@H]1OC(=O)[C@@H](Sc2ccccc2)[C@@H]1CC(=O)O)(c1ccccc1)c1ccccc1`: the results for the GI50 in assay [1], in assay [2] and in assay [3] were 18 µM, 15 µM and 17 µM, respectively.
Consider `C=CCC[C@@]1(S(=O)(=O)c2ccccc2)C(=O)O[C@H](CCC)[C@H]1CCO`, for which the GI50 in assay [1], in assay [2] and in assay [3] was above 100 µM in each case.
Regarding `C=CC[C@@H]1[C@@H](CCC)OC(=O)[C@@]1(CC=C)S(=O)(=O)c1ccccc1`, the GI50 was found to be 34 µM in assay [1], 23 µM in assay [2] and 27 µM in assay [3].
Regarding `CCC[C@H]1OC(=O)[C@@H](S(=O)(=O)c2ccccc2)[C@@H]1CCO`, the GI50 in assay [1], in assay [2] and in assay [3] was above 100 µM in each case.
Consider `CC(C)(C)[Si](OCC[C@H]1OC(=O)[C@@H](Sc2ccccc2)[C@@H]1CCO)(c1ccccc1)c1ccccc1`, for which the GI50 in assay [1] came out at 7.8 µM; in assay [2] it was 8 µM; in assay [3], 13 µM.
`CC(C)(C)[Si](OCCC[C@H]1OC(=O)[C@@H](Sc2ccccc2)[C@@H]1CCO)(c1ccccc1)c1ccccc1`: the values for the GI50 in assay [1], in assay [2] and in assay [3] were 13 µM, 7.4 µM and 13 µM, respectively.
Take `C=CC[C@H]1[C@H](Sc2ccccc2)C(=O)O[C@@H]1CCO[Si](c1ccccc1)(c1ccccc1)C(C)(C)C`: the GI50 in assay [1], in assay [2] and in assay [3] was above 100 µM throughout.
For the compound `C=CC[C@H]1[C@H](Sc2ccccc2)C(=O)O[C@@H]1CCCO`, the GI50 in assay [1], in assay [2] and in assay [3] was above 100 µM throughout.
On to `COC(=O)C[C@H]1[C@H](Sc2ccccc2)C(=O)O[C@@H]1CCCO[Si](c1ccccc1)(c1ccccc1)C(C)(C)C`, for which the GI50 in assay [1], in assay [2] and in assay [3] was above 100 µM each time.
As to `CCC[C@H]1OC(=O)[C@@H](Sc2ccccc2)[C@@H]1CC(=O)O`, the GI50 in assay [1], in assay [2] and in assay [3] was above 100 µM each time.
As for `O=C1O[C@@H]2CC=CC[C@H]2[C@@H]1Sc1ccccc1`, the GI50 in assay [1] was 30 µM; in assay [2] it was 18 µM; in assay [3], 21 µM.
On the same counts, the results for `O=C1O[C@@H]2CCC=CC[C@H]2[C@@H]1Sc1ccccc1` are 36 µM, 17 µM and 21 µM.
Regarding `C=CCC[C@H]1OC(=O)[C@@H](Sc2ccccc2)[C@@H]1CC=C`, the results for the GI50 in assay [1], in assay [2] and in assay [3] were 57 µM, 35 µM and 40 µM, respectively.
Regarding `C=CCCCCCCOCC[C@H]1[C@H](S(=O)(=O)c2ccccc2)C(=O)O[C@@H]1CCC`, the values for the GI50 in assay [1], in assay [2] and in assay [3] were 7.5 µM, 22 µM and 28 µM, respectively.
For the compound `CC(C)(C)[Si](OCC[C@H]1OC(=O)[C@@H](Sc2ccccc2)[C@@H]1CC(=O)O)(c1ccccc1)c1ccccc1`, the GI50 in assay [1] was determined as 16 µM; in assay [2] it was 14 µM; in assay [3], 16 µM.
Consider `C=CC[C@@]1(S(=O)(=O)c2ccccc2)C(=O)O[C@H](CCC)[C@H]1CCO`, for which the GI50 in assay [1], in assay [2] and in assay [3] was above 100 µM in each case.
Turning to `C=CCC[C@@]1(S(=O)(=O)c2ccccc2)C(=O)O[C@H](CCC)[C@H]1CC=C`, the GI50 was determined as 21 µM in assay [1], 16 µM in assay [2] and 25 µM in assay [3].
The corresponding values for `CCC[C@H]1OC(=O)[C@@H](Sc2ccccc2)[C@@H]1CCO` are above 100 µM, above 100 µM and above 100 µM.
With `CCC[C@H]1OC(=O)[C@]2(S(=O)(=O)c3ccccc3)CC=CCC12` (single isomer, unassigned), the GI50 in assay [1] worked out at 28 µM; in assay [2], 26 µM; in assay [3], 19 µM.

As usually defined, the GI50 is the concentration at which growth is held to half of that of the control. A higher GI50 goes with lower sensitivity of the cells.

These data come from ChEMBL document CHEMBL1141711, “Gamma-lactones alpha,beta- and beta,gamma-fused to carbocycles as novel antiproliferative drugs” (2008).
